Structures can show the parent of a compound that is named as a salt.
Experiments:
Format in all cases: in vivo
[1] = tested on: Echinochloa crus-galli; experiment: Field trial with maize, herbicidal action
Procedure: (§1) Transgenic maize plants with a resistance to one or more herbicides (A) together with typical weed plants were grown in the open on 2×5 m plots under natural field conditions; alternatively, weed infestation occurred naturally when the maize plants were grown.
(§2) […] The damage to, and the development of, all aerial parts of the plants was recorded. Scoring was done on the basis of a percentage sale (100% action=all plants destroyed; 50% action=50% of the plants and green parts of the plants destroyed; 0% action=no recognizable effect=like control plot. The mean of the score values of in each case 4 plots was calculated.

[2] = tested on: Panicum dichotomiflorum; experiment: Field trial with maize, herbicidal action; conditions: application 5-6-leaf stage, scoring 11 days after application
Procedure: as §1, §2

[3] = tested on: Portulaca oleracea; experiment: Field trial with maize, herbicidal action
Procedure: as §1, §2

[4] = tested on: Cassia obtusifolia; experiment: Field trial with maize, herbicidal action; conditions: 400 g of a.s./ha; application 3-leaf stage; scoring 21 days after application
Procedure: as §1, §2

[5] = tested on: AMARE; experiment: Field trial with maize, herbicidal action; conditions: application 2-4-leaf stage, scoring 3 weeks after application
Procedure: as §1, §2

[6] = tested on: Lolium multiflorum; experiment: Field trial with maize, herbicidal action; conditions: application 2- to 4-leaf stage, scoring 26 days after application
Procedure: as §1, §2

[7] = tested on: Digitaria sanguinalis; experiment: Field trial with maize, herbicidal action; conditions: application 5-6-leaf stage, scoring 11 days after application
Procedure: as §1, §2

[8] = tested on: Galium aparine; experiment: Field trial with maize, herbicidal action; conditions: application 3- to 4-leaf stage, scoring 24 days after application
Procedure: as §1, §2

[9] = tested on: AGRRE; experiment: Field trial with maize, herbicidal action; conditions: application 2-4-leaf stage, scoring 3 weeks after application
Procedure: as §1, §2

[10] = tested on: Euphorbia heterophylla; experiment: Field trial with maize, herbicidal action; conditions: for Herbicidal action (%) against Euphorbia heterophylla: application 6-leaf stage, scoring 44 days after application; for Herbicidal action (%) against EPHHL: application 4-leaf stage, scoring 6 weeks after application
Procedure: as §1, §2

[11] = tested on: SETVI; experiment: Field trial with maize, herbicidal action; conditions: application 2-4-leaf stage, scoring 3 weeks after application
Procedure: as §1, §2

[12] = tested on: Fagopyrum esculentum; experiment: Field trial with maize, herbicidal action; conditions: for Herbicidal action (%) against Fagopyrum esculentum: application 3- to 4-leaf stage, scoring 24 days after application; for Herbicidal action (%) against Fagopyron esculentum: application 2- to 4-leaf stage, scoring 26 days after application
Procedure: as §1, §2

[13] = tested on: Mais LL (Liberty-Link-Mais, maize tolerant or resistant to glufosinate-ammonium); experiment: Field trial, damage to transgenic maize (tolerance by crop plants); conditions: for Mais LL: application 3-leaf stage
Procedure: as §1
The damage to, and the development of, all aerial parts of the plants was recorded.
Abbreviations generally used in the tables: • g of a.s./ha=gram of active substance (100% active substance) per hectare • E^A=Total of the herbicidal effects of the individual applications • E^C Colby's expected value (cf. scoring in Table 1) • “Mais LL”=®Liberty-Link-Mais, maize which is tolerant or resistant to glufosinate-ammonium, […]

[14] = tested on: Sorghum bicolor; experiment: Field trial with maize, herbicidal action; conditions: application 4-leaf stage, scoring 28 days after post-emergence application
Procedure: as §1
(§3) 2, 4, 6 and 8 weeks after the application, the herbicidal activity of the active substances or active substance mixtures was scored visually with reference to the treated plots in comparison to untreated control plots. The damage to, and the development of, all aerial parts of the plants was recorded. Scoring was done on the basis of a percentage sale (100% action=all plants destroyed; 50% action=50% of the plants and green parts of the plants destroyed; 0% action=no recognizable effect=like control plot. The mean of the score values of in each case 4 plots was calculated.

[15] = tested on: Avena fatua; experiment: Field trial with maize, herbicidal action; conditions: application 2- to 4-leaf stage, scoring 28 days after application
Procedure: as §1, §3

[16] = tested on: Sinapis arvensis; experiment: Field trial with maize, herbicidal action; conditions: application 4- to 5-leaf stage, scoring 28 days after application
Procedure: as §1, §3

[17] = tested on: Sorghum halepense; experiment: Field trial with maize, herbicidal action; conditions: application 4-leaf stage, scoring 28 days after application
Procedure: as §1, §3

[18] = tested on: Convolvulus arvensis; experiment: Field trial with maize, herbicidal action; conditions: application 3- to 4-leaf stage, scoring 28 days after application
Procedure: as §1, §3

With `CP(=O)(O)CCC(N)C(=O)O` (stereo not drawn) [(A1.2), glufosinate-monoammonium salt] the “Herbicidal action (%) against Echinochloa crus-galli” value ([1]; 125 g of a.s./ha, application 3- to 4-leaf stage, scoring 42 days after application) was 45%, the “Herbicidal action (%) against Echinochloa crus-galli” value ([1]; 125 g of a.s./ha, application 3-leaf stage, scoring 28 days after application) was 25% and the “Herbicidal action (%) against Echinochloa crus-galli” value ([1]; 200 g of a.s./ha, application 3-leaf stage, scoring 21 days after application) was 35%. For the same compound, the “Herbicidal action (%) against Echinochloa crus-galli” value ([1]; 250 g of a.s./ha, application 3- to 4-leaf stage, scoring 42 days after application) was 65%, the “Herbicidal action (%) against Echinochloa crus-galli” value ([1]; 250 g of a.s./ha, application 3-leaf stage, scoring 28 days after application) was 45% and the “Herbicidal action (%) against Echinochloa crus-galli” value ([1]; 400 g of a.s./ha, application 3-leaf stage, scoring 21 days after application) was 68%. The “Herbicidal action (%) against Echinochloa crus-galli” value ([1]; 500 g of a.s./ha, application 3- to 4-leaf stage, scoring 42 days after application) was 78%, the “Herbicidal action (%) against Echinochloa crus-galli” value ([1]; 500 g of a.s./ha, application 3-leaf stage, scoring 28 days after application) was 74% and the “Herbicidal action (%) against Panicum dichotomiflorum” value ([2]; 200 g of a.s./ha) was 8%. For the same compound, the “Herbicidal action (%) against Panicum dichotomiflorum” value ([2]; 400 g of a.s./ha) was 50%, the “Herbicidal action (%) against Panicum dichotomiflorum” value ([2]; 600 g of a.s./ha) was 92% and the “Herbicidal action (%) against Portulaca oleracea” value ([3]; 250 g of a.s./ha, application 6-leaf stage, scoring 26 days after application) was 35%. The “Herbicidal action (%) against Portulaca oleracea” value ([3]; 300 g of a.s./ha, application 2- to 4-leaf stage, scoring 28 days after application) was 43%, the “Herbicidal action (%) against Portulaca oleracea” value ([3]; 450 g of a.s./ha, application 2- to 4-leaf stage, scoring 28 days after application) was 50% and the “Herbicidal action (%) against Portulaca oleracea” value ([3]; 500 g of a.s./ha, application 6-leaf stage, scoring 26 days after application) was 60%. For the same compound, the “Herbicidal action (%) against Cassia obtusifolia” value [4] was 60%, the “Herbicidal action (%) against AMARE” value ([5]; 200 g of a.s./ha) was 65% and the “Herbicidal action (%) against AMARE” value ([5]; 300 g of a.s./ha) was 84%. For the same compound, the “Herbicidal action (%) against AMARE” value ([5]; 400 g of a.s./ha) was 82%, the “Herbicidal action (%) against AMARE” value ([5]; 600 g of a.s./ha) was 87% and the “Herbicidal action (%) against AMARE” value ([5]; 1000 g of a.s./ha) was 85%. For the same compound, the “Herbicidal action (%) against Lolium multiflorum” value ([6]; 200 g of a.s./ha) was 0%, the “Herbicidal action (%) against Lolium multiflorum” value ([6]; 330 g of a.s./ha) was 15% and the “Herbicidal action (%) against Lolium multiflorum” value ([6]; 500 g of a.s./ha) was 78%. For the same compound, the “Herbicidal action (%) against Digitaria sanguinalis” value ([7]; 200 g of a.s./ha) was 0%, the “Herbicidal action (%) against Digitaria sanguinalis” value ([7]; 400 g of a.s./ha) was 15% and the “Herbicidal action (%) against Digitaria sanguinalis” value ([7]; 600 g of a.s./ha) was 30%. The “Herbicidal action (%) against Galium aparine” value ([8]; 125 g of a.s./ha) was 30%, the “Herbicidal action (%) against Galium aparine” value ([8]; 250 g of a.s./ha) was 45% and the “Herbicidal action (%) against Galium aparine” value ([8]; 500 g of a.s./ha) was 65%. For the same compound, the “Herbicidal action (%) against AGRRE” value ([9]; 200 g of a.s./ha) was 0%, the “Herbicidal action (%) against AGRRE” value ([9]; 300 g of a.s./ha) was 0% and the “Herbicidal action (%) against AGRRE” value ([9]; 400 g of a.s./ha) was 11%. For the same compound, the “Herbicidal action (%) against AGRRE” value ([9]; 600 g of a.s./ha) was 15%, the “Herbicidal action (%) against AGRRE” value ([9]; 1000 g of a.s./ha) was 74% and the “Herbicidal action (%) against Euphorbia heterophylla” value ([10]; 100 g of a.s./ha) was 37%. For the same compound, the “Herbicidal action (%) against Euphorbia heterophylla” value ([10]; 200 g of a.s./ha) was 50%, the “Herbicidal action (%) against EPHHL” value ([10]; 300 g of a.s./ha) was 45% and the “Herbicidal action (%) against Euphorbia heterophylla” value ([10]; 400 g of a.s./ha) was 60%. The “Herbicidal action (%) against EPHHL” value ([10]; 600 g of a.s./ha) was 55%, the “Herbicidal action (%) against SETVI” value ([11]; 200 g of a.s./ha) was 72% and the “Herbicidal action (%) against SETVI” value ([11]; 300 g of a.s./ha) was 72%. For the same compound, the “Herbicidal action (%) against SETVI” value ([11]; 400 g of a.s./ha) was 69%, the “Herbicidal action (%) against SETVI” value ([11]; 600 g of a.s./ha) was 69% and the “Herbicidal action (%) against SETVI” value ([11]; 1000 g of a.s./ha) was 74%. For the same compound, the “Herbicidal action (%) against Fagopyrum esculentum” value ([12]; 125 g of a.s./ha) was 10%, the “Herbicidal action (%) against Fagopyron esculentum” value ([12]; 200 g of a.s./ha) was 10% and the “Herbicidal action (%) against Fagopyrum esculentum” value ([12]; 250 g of a.s./ha) was 20%. For the same compound, the “Herbicidal action (%) against Fagopyron esculentum” value ([12]; 330 g of a.s./ha) was 20%, the “Herbicidal action (%) against Fagopyron esculentum” value ([12]; 500 g of a.s./ha) was 55% and the “Herbicidal action (%) against Fagopyrum esculentum” value ([12]; 500 g of a.s./ha) was 55%. For the same compound, the “Mais LL” value ([13]; 100 g of a.s./ha, Table 11, head names no quantity) was 0, the “Damage to Mais LL in %” value ([13]; 100 g of a.s./ha, application 6-leaf stage) was 0% and the “Damage to Mais LL in %” value ([13]; 200 g of a.s./ha, application 2-4-leaf stage) was 3%. The “Mais LL” value ([13]; 200 g of a.s./ha, Table 11, head names no quantity) was 0, the “Mais LL” value ([13]; 200 g of a.s./ha, Table 14, head names no quantity) was 0 and the “Damage to Mais LL in %” value ([13]; 200 g of a.s./ha, application 5-6-leaf stage) was 2%. The “Damage to Mais LL in %” value ([13]; 200 g of a.s./ha, application 6-leaf stage) was 0%, the “Damage to Mais LL in %” value ([13]; 300 g of a.s./ha, application 2-4-leaf stage) was 2% and the “Mais LL” value ([13]; 300 g of a.s./ha, Table 11, head names no quantity) was 0. For the same compound, the “Damage to Mais LL in %” value ([13]; 300 g of a.s./ha, application 4-leaf stage) was 0%, the “Damage to Mais LL in %” value ([13]; 400 g of a.s./ha, application 2-4-leaf stage) was 5% and the “Mais LL” value ([13]; 400 g of a.s./ha, Table 14, head names no quantity) was 8. For the same compound, the “Damage to Mais LL in %” value ([13]; 400 g of a.s./ha, application 5-6-leaf stage) was 4%, the “Damage to Mais LL in %” value ([13]; 400 g of a.s./ha, application 6-leaf stage) was 0% and the “Damage to Mais LL in %” value ([13]; 600 g of a.s./ha, application 2-4-leaf stage) was 3%. For the same compound, the “Mais LL” value ([13]; 600 g of a.s./ha, Table 11, head names no quantity) was 0, the “Damage to Mais LL in %” value ([13]; 600 g of a.s./ha, application 4-leaf stage) was 0% and the “Damage to Mais LL in %” value ([13]; 600 g of a.s./ha, application 5-6-leaf stage) was 3%. For the same compound, the “Damage to Mais LL in %” value ([13]; 1000 g of a.s./ha, application 2-4-leaf stage) was 4%, the “Herbicidal action (%) against Sorghum bicolor” value ([14]; 125 g of a.s./ha) was 30% and the “Herbicidal action (%) against Sorghum bicolor” value ([14]; 250 g of a.s./ha) was 50%. For the same compound, the “Herbicidal action (%) against Sorghum bicolor” value ([14]; 500 g of a.s./ha) was 85%, the “Herbicidal action (%) against Avena fatua” value ([15]; 300 g of a.s./ha) was 48% and the “Herbicidal action (%) against Avena fatua” value ([15]; 450 g of a.s./ha) was 50%. For the same compound, the “Herbicidal action (%) against Sinapis arvensis” value ([16]; 230 g of a.s./ha) was 45%, the “Herbicidal action (%) against Sinapis arvensis” value ([16]; 350 g of a.s./ha) was 75% and the “Herbicidal action (%) against Sorghum halepense” value ([17]; 300 g of a.s./ha) was 15%. For the same compound, the “Herbicidal action (%) against Sorghum halepense” value ([17]; 500 g of a.s./ha) was 53%, the “Herbicidal action (%) against Convolvulus arvensis” value ([18]; 200 g of a.s./ha) was 0% and the “Herbicidal action (%) against Convolvulus arvensis” value ([18]; 400 g of a.s./ha) was 20%.
